{"source": "patent US20200360400A1", "about": "“COMPOSITIONS AND METHODS FOR THE TREATMENT OF ADDICTION, PSYCHIATRIC DISORDERS, AND NEURODEGENERATIVE DISEASE” (Embera NeuroTherapeutics, Inc., priority 2017, published 2020)", "key": {"[1]": {"test": "Cocaine interaction crossover study: pharmacokinetics", "experimental": "This was a double-blind, placebo-controlled, randomized, crossover study of non-treatment-seeking subjects with cocaine use disorder (CUD). […] On the last day of each dosing week, subjects received 40 mg IV cocaine. Primary outcomes were safety and pharmacokinetics (PK).\n• Subjects: Non-treatment seeking subjects with cocaine use disorder, ages 21-55 • Design: Single center, randomized, double-blind (DB), placebo-controlled (PLB), 2-period crossover design • Dosing: • One week of dosing with MET/OX (EMB-001) and one week of placebo, separated by one-week washout (randomized, DB, counterbalanced) • 40 mg IV cocaine & saline infusions on 7th day of dosing of MET/OX and placebo • Dose of MET/OX: 720 mg MET & 24 mg OX, BID • Primary Objective: Safety of MET/OX when co-administered with cocaine • Secondary Objectives: • Effects of MET/OX on PK of cocaine • Effects of cocaine on PK of MET/OX • Exploratory Objective: • Effects of MET/OX on measures of craving and subjective effects produced by cocaine"}, "adult male Wistar rats [2]": {"tested_on": "adult male Wistar rats", "test": "Intravenous cocaine self-administration under a multiple, alternating schedule of food reinforcement and cocaine self-administration", "type": "in vivo, rat", "quoted_text": "Adult male Wistar rats were trained under a multiple, alternating schedule of cocaine and food self-administration. This schedule consisted of alternating periods of cocaine access and food reinforcement. In some instances, as described further below, three doses of cocaine (0.125, 0.25, or 0.50 mg/kg/infusion) were tested. Rats were also periodically trained with saline substitution (cocaine extinction) and food extinction during the same session.\nIn our model, rats were exposed to alternating 15-minute periods of access to cocaine self-administration and food reinforcement. Food was used to control for potential nonspecific, ataxis effects of the drugs and combinations.\nMore specifically, adult male Wistar rats were implanted with chronic jugular catheters. Following recovery from surgery, the rats were trained to respond under a multiple, alternating schedule of food reinforcement and cocaine self-administration. Food-maintained responding was used to control for the non-specific motor effects of the various treatments. During the food component of the schedule, the stimulus light located above the food response lever was illuminated to indicate the availability of food reinforcement. […] A 25-second timeout followed the delivery of each food pellet. During this timeout, the stimulus light was darkened and responses on the food lever were counted but had no scheduled consequences. Responding on the other (cocaine) lever during the food component also had no scheduled consequences. […] Following 15 minutes of access to food, all stimulus lights in the chamber were darkened for a 1-minute timeout. Following the timeout, the stimulus light above the cocaine response lever was illuminated to indicate the availability of cocaine (0.125, 0.25, or 0.5 mg/kg/infusion). […] A 20-second timeout period followed each infusion. […] After 15 minutes of access to cocaine and a 1-minute timeout, the rats were again allowed 15 minutes access to the food component of the schedule. Access to food and cocaine alternated in this manner every 15 minutes during the two hour behavioral sessions so that each rat was exposed to food and cocaine for four 15-minute periods each. Each behavioral session began with 15 minutes access to either food or cocaine, and this alternated daily. Stable baselines of responding were established when the total number of cocaine and food presentations, as well as the number of presentations during each of the four exposures each session, varied less than 10% for three consecutive sessions. At least three different doses of cocaine (e.g., 0.125, 0.25, and 0.5 mg/kg/infusion) were tested. Rats were first trained to self-administer 0.25 mg/kg/infusion, our standard dose of cocaine. When responding stabilized, the dose was changed to 0.125 or 0.5 mg/kg/infusion as appropriate.\nOnce stable baselines of responding were obtained, dose-response curves for the various compounds were individually generated for each rat. Rats were treated with each dose at least twice with a minimum of two days of baseline cocaine self-administration interspersed between each test. Each group of rats was tested with only two of the test compounds to minimize potential carryover effects. […] This rationale guided the selection of the doses of each of the compounds in the combination studies. Each experimental group consisted of between 8 and 10 rats."}, "adult male Wistar rats [3]": {"tested_on": "adult male Wistar rats", "test": "Cue-induced reinstatement of extinguished cocaine seeking", "type": "in vivo, rat", "settings": "for reinstatement of extinguished cocaine seeking: pretreatment with the drug alone, general statement", "experimental": "The experiments described herein were designed to investigate whether or not drug combinations identified as effective in reducing cocaine self-administration would also block the ability of conditioned cues to reinstate extinguished cocaine-seeking behavior. Adult male Wistar rats were implanted with chronic jugular catheters and trained to self-administer cocaine (0.25 mg/kg/infusion) by pressing one of the response levers in the experimental chamber (i.e., the “active” or “cocaine” lever) under a fixed-ratio four (FR4) schedule of reinforcement during daily 2-hour sessions conducted 5 days per week. At the start of each session, both levers were extended into the chamber and the stimulus light above the active lever was illuminated to indicate the availability of cocaine. […] A 20-second timeout period followed each infusion. The stimulus light above the active lever and the house light and tone compound stimulus were extinguished during the timeout period, and the light above the active lever was illuminated once the timeout ended. When responding on the active lever varied less than 20% for two consecutive days, the response requirement was increased to FR2. When similar stability was observed under the FR2 schedule or reinforcement, the response requirement was increased to the final ratio of four. The criteria for stable responding under the FR4 schedule of reinforcement was a minimum of 10 days of exposure to this schedule that concluded with at least three consecutive days when responding varied by less than 10%. […] Once stable cocaine self-administration was observed, rats were exposed to extinction; the rats were placed into the behavioral chambers, but responding on the “cocaine” (active) lever produced no programmed consequences. Extinction training continued until responding decreased to less than 20% of baseline self-administration. Then reinstatement testing commended. The rats were placed into the experimental chambers, both response levers were extended into the chamber, and the stimulus light above the “active” lever was illuminated as during self-administration training. […] Responding on the “active” lever during reinstatement testing was taken as an index of cocaine-seeking behavior. Each experimental group consisted of 8 to 10 rats."}, "[4]": {"settings": "rat, in vivo", "experimental": "Adult male Wistar rats (90 to 120 days old) were implanted with chronic, indwelling jugular catheters and were allowed to recover from surgery. […] Thirty minutes following the drug combination or vehicle injection, the rats received intravenous injections of cocaine (0.25 mg/kg/infusion) every 2 minutes for 1 hour. After the final injection of cocaine, blood was collected from the catheter for the analysis of cocaine and its metabolites ecgonine methyl ester and benzoylecgonine. […] All drug concentrations were determined using GCMS procedures."}, "male Wistar rats [5]": {"tested_on": "male Wistar rats", "test": "Cocaine self-administration following adrenalectomy, with plasma CORT and ACTH", "type": "in vivo, rat", "quoted_text": "Subjects: Male Wistar rats were housed in an AALAC-approved animal care facility and maintained at 85-90% of their free-feeding body weights. These rats were on a reversed 12-hour light, 12-hour dark cycle from the beginning of the experimental procedures.\nCatheter surgery: A chronic indwelling jugular catheter (0.012 in i.d.×0.025 in o.d., silicone tubing) was implanted in each rat under pentobarbital anesthesia (50 mg/kg ip) with methyl atropine nitrate pretreatment (10 mg/kg ip). The animals were injected with sterile penicillin G procaine suspension (75,000 units, im) immediately before surgery and allowed 5-7 days to recover.\nAdrenalectomy surgery: Animals were anesthetized with pentobarbital (50 mg/kg ip) with methyl atropine nitrate pretreatment (10 mg/kg ip). The adrenal glands were located through an incision and removed. The animals were injected with sterile penicillin G procaine suspension (75,000 units, im) and allowed to recover from surgery for 7 days. After ADX, the rats received drinking water containing 0.9% saline and 1.0% sucrose. Animals in the SHAM group received the same surgery except that the adrenal glands were not removed. They continued to receive tap water to drink.\nEquipment: Sound-attenuating operant conditioning chambers (Med-Associates, Inc.) were equipped with two response levers and a stimulus light located directly above each lever. A food pellet dispenser was located between the levers. […] An IBM-compatible personal computer and interface system was used to program the procedure and collect the experimental data.\nAlternating Schedule of Cocaine and Food Reinforcement: Following recovery from catheter surgery, the rats were trained to respond under a multiple, alternating schedule of food reinforcement and cocaine self-administration. […]\nHormone Measurements: Blood was collected via the implanted catheters at the end of the behavioral test sessions for the measurement of plasma CORT and adrenocorticotropin releasing hormone (ACTH). […] Plasma CORT and ACTH (ng/ml) were subsequently determined by radioimmunoassay."}, "male Wistar rats [6]": {"tested_on": "male Wistar rats", "test": "Forced Swim Test (FST), animal model of depression"}, "Wistar-derived male rats": {"tested_on": "Wistar-derived male rats", "test": "Intravenous nicotine self-administration, fixed-ratio schedule (FR1, TO-20 s)", "type": "in vivo, rat", "quoted_text": "Animals: Wistar-derived male rats (250-300 g) were purchased from Harlan Laboratories (Livermore, Calif.), housed in groups of two, and maintained in a temperature-controlled environment on a 12 h:12 h light cycle. Before testing, animals were provided free access to food and water during a one-week habituation period, and were handled daily for several days to desensitize them to handling stress. Each rat included in the data analysis received all treatments in order to obtain reliable estimates of drug effects and decrease the impact of inter-animal variability. Animals were handled, housed, and sacrificed in accord with the current NIH guidelines and all applicable local, state, and federal regulations and guidelines.\nVarenicline-HCl (Ontario Chemicals), at 1 mg/kg (expressed as free base), was used as a positive control and administered subcutaneously. Nicotine hydrogen tartrate (Sigma Aldrich) was dissolved in isotonic saline at 0.3 mg/mL (expressed as free base), adjusted to pH 7.0, and diluted to deliver 0.03 mg/kg/infusion. All test compounds were administered 30 minutes prior to nicotine self-administration sessions in a volume of 1 mL/kg.\nApparatus: Food training and nicotine self-administration took place in 8 standard Coulbourn™ operant conditioning chambers. Each chamber was housed in a sound-attenuating chamber. […]"}, "[7]": {"settings": "smoking cessation (Nides et al. 2006); cited from earlier work"}, "[8]": {"settings": "after 40 mg IV cocaine, + EMB-001"}, "[9]": {"settings": "after 40 mg IV cocaine, + Placebo"}, "[10]": {"settings": "high dose of the drug alone, ip"}, "[11]": {"settings": "low, ineffective dose of the drug alone, ip"}, "[12]": {"settings": "pretreatment with the drug alone, general statement"}}, "note": "Entries after “also recorded” stand apart in the source; their conditions may differ.", "data": [{"compound": "CN1[C@H]2CC[C@@H]1[C@@H](C(=O)O)[C@@H](OC(=O)c1ccccc1)C2", "note": "[Benzoylecgonine, benzoylecgonine]", "values": [{"measurement": "AUC 0-∞", "setting": "[1]; [8]", "result": "3.08 ± 0.689", "unit": "µg·h/mL"}, {"measurement": "Cmax", "setting": "[1]; [8]", "result": "0.198 ± 0.055", "unit": "µg/mL"}, {"measurement": "AUC 0-∞", "setting": "[1]; [9]", "result": "2.97 ± 0.72", "unit": "µg·h/mL"}, {"measurement": "Cmax", "setting": "[1]; [9]", "result": "0.199 ± 0.045", "unit": "µg/mL"}]}, {"compound": "CCCCN(CC)c1nc(C)nc2c1c(C)cn2-c1c(C)cc(C)cc1C", "note": "[CP-154,526]", "values": [{"measurement": "cocaine self-administration (number of cocaine infusions)", "setting": "adult male Wistar rats [2]; [10]", "result": "reduced cocaine self-administration"}, {"measurement": "food-maintained responding", "setting": "adult male Wistar rats [2]; [10]", "result": "without affecting food-maintained responding"}, {"measurement": "cocaine self-administration (number of cocaine infusions)", "setting": "adult male Wistar rats [2]; [11]", "result": "did not significantly affect"}, {"measurement": "food-maintained responding", "setting": "adult male Wistar rats [2]; [11]", "result": "did not significantly affect"}, {"measurement": "cocaine self-administration", "setting": "adult male Wistar rats [2]; [12]", "result": "decrease"}, {"measurement": "reinstatement of extinguished cocaine seeking", "setting": "adult male Wistar rats [3]", "result": "decrease"}]}, {"compound": "COC(=O)[C@@H]1[C@H]2CC[C@@H](C[C@@H]1O)N2C", "note": "[Ecgonine Methyl Ester, ecgonine methyl ester]", "values": [{"measurement": "AUC 0-∞", "setting": "[1]; [8]", "result": "0.244 ± 0.05", "unit": "µg·h/mL"}, {"measurement": "Cmax", "setting": "[1]; [8]", "result": "0.0205 ± 0.0037", "unit": "µg/mL"}, {"measurement": "AUC 0-∞", "setting": "[1]; [9]", "result": "0.234 ± 0.045", "unit": "µg·h/mL"}, {"measurement": "Cmax", "setting": "[1]; [9]", "result": "0.0215 ± 0.0037", "unit": "µg/mL"}]}, {"compound": "Cc1nnc2n1-c1ccc(Cl)cc1C(c1ccccc1)=NC2", "note": "[alprazolam]", "values": [{"measurement": "cocaine self-administration (number of cocaine infusions)", "setting": "adult male Wistar rats [2]; [10]", "result": "reduced cocaine self-administration"}, {"measurement": "food-maintained responding", "setting": "adult male Wistar rats [2]; [10]", "result": "without affecting food-maintained responding"}, {"measurement": "cocaine self-administration (number of cocaine infusions)", "setting": "adult male Wistar rats [2]; [11]", "result": "did not significantly affect"}, {"measurement": "food-maintained responding", "setting": "adult male Wistar rats [2]; [11]", "result": "did not significantly affect"}, {"measurement": "cocaine self-administration", "setting": "adult male Wistar rats [2]; [12]", "result": "decrease"}, {"measurement": "reinstatement of extinguished cocaine seeking", "setting": "adult male Wistar rats [3]", "result": "decrease"}]}, {"compound": "CC(=O)N1CCN(c2ccc(OCC3COC(Cn4ccnc4)(c4ccc(Cl)cc4Cl)O3)cc2)CC1", "note": "(stereo not drawn) [ketoconazole]", "values": [{"measurement": "minimally effective dose (reduces cocaine self-administration by at least 50% without affecting food-maintained responding)", "setting": "adult male Wistar rats [2]; drug alone", "result": 25, "unit": "mg/kg"}, {"measurement": "cocaine self-administration (number of cocaine infusions)", "setting": "adult male Wistar rats [2]; [11]", "result": "no effect; also recorded: did not significantly affect"}, {"measurement": "food-maintained responding", "setting": "adult male Wistar rats [2]; [11]", "result": "no effect; also recorded: did not significantly affect"}, {"measurement": "cocaine self-administration", "setting": "adult male Wistar rats [2]; [12]", "result": "decrease"}, {"measurement": "reinstatement of extinguished cocaine seeking", "setting": "adult male Wistar rats [3]", "result": "decrease"}]}, {"compound": "CC(C)(c1cccnc1)C(O)c1cccnc1", "note": "(stereo not drawn) [metyrapol]", "values": [{"measurement": "food-maintained responding", "setting": "adult male Wistar rats [2]; 25, 50, 100 and 150 mg/kg ip 30 min before", "result": "not significantly affected except at the highest doses"}, {"measurement": "cocaine self-administration", "setting": "adult male Wistar rats [2]; 25, 50, 100 and 150 mg/kg ip 30 min before, cocaine 0.125, 0.25, 0.5 mg/kg/infusion", "result": "dose dependently decreased"}, {"measurement": "AUC 0-∞", "setting": "[1]; human, in vivo", "result": "5.48 ± 4.84", "unit": "µg·h/mL"}, {"measurement": "Cmax", "setting": "[1]; human, in vivo", "result": "1.85 ± 1.57", "unit": "µg/mL"}]}, {"compound": "CC(C)(C(=O)c1cccnc1)c1cccnc1", "note": "[metyrapone]", "values": [{"measurement": "cocaine self-administration (number of cocaine infusions)", "setting": "adult male Wistar rats [2]; [10]", "result": "reduced cocaine self-administration"}, {"measurement": "food-maintained responding", "setting": "adult male Wistar rats [2]; [10]", "result": "without affecting food-maintained responding"}, {"measurement": "cocaine self-administration (number of cocaine infusions)", "setting": "adult male Wistar rats [2]; [11]", "result": "did not significantly affect"}, {"measurement": "food-maintained responding", "setting": "adult male Wistar rats [2]; [11]", "result": "did not significantly affect"}, {"measurement": "plasma corticosterone", "setting": "adult male Wistar rats [2]; pretreatment with the drug alone", "result": "significant dose-related decreases"}, {"measurement": "cocaine self-administration", "setting": "adult male Wistar rats [2]; [12]", "result": "decrease; also recorded: significant dose-related decreases"}, {"measurement": "cue-induced reinstatement (responding on the active lever)", "setting": "adult male Wistar rats [3]; chronic, 50 mg/kg, ip, once per day for 14 days", "result": "reduced cocaine seeking to levels seen when only saline was delivered"}, {"measurement": "reinstatement of extinguished cocaine seeking", "setting": "adult male Wistar rats [3]", "result": "decrease"}, {"measurement": "plasma concentration in the presence of cocaine", "setting": "[4]", "result": "did not affect"}, {"measurement": "influence on plasma concentration of the other drug", "setting": "[4]; ip", "result": "did not influence"}, {"measurement": "blocking cocaine self-administration following adrenalectomy compared to pre-adrenalectomy values", "setting": "male Wistar rats [5]; MET 50, OX 5, OX 10 mg/kg and combinations", "result": "as effective, and possibly even more effective"}, {"measurement": "plasma ACTH", "setting": "male Wistar rats [5]; before adrenalectomy", "result": "not changed"}, {"measurement": "plasma corticosterone", "setting": "male Wistar rats [5]; before adrenalectomy", "result": "not changed"}, {"measurement": "AUC 0-∞", "setting": "[1]; human, in vivo", "result": "0.9 ± 0.492", "unit": "µg·h/mL"}, {"measurement": "Cmax", "setting": "[1]; human, in vivo", "result": "0.429 ± 0.234", "unit": "µg/mL"}, {"measurement": "immobility in the FST", "setting": "male Wistar rats [6]; acute and chronic administration, alone and in combination, oxazepam 5 or 10, metyrapone 25 or 50 mg/kg", "result": "effective in reducing immobility"}, {"measurement": "immobility time", "setting": "male Wistar rats [6]; chronic, metyrapone 50 mg/kg alone (Met50 group)", "result": "showed a lessening of immobility time"}, {"measurement": "group means of immobility time relative to vehicle (tolerance)", "setting": "male Wistar rats [6]; chronically treated groups that received only Ox or Met", "result": "equal to or exceeded the vehicle"}]}, {"compound": "NCc1cc(=O)[nH]o1", "note": "[muscimol]", "values": [{"measurement": "cocaine self-administration (number of cocaine infusions)", "setting": "adult male Wistar rats [2]; [10]", "result": "reduced cocaine self-administration"}, {"measurement": "food-maintained responding", "setting": "adult male Wistar rats [2]; [10]", "result": "without affecting food-maintained responding"}, {"measurement": "cocaine self-administration (number of cocaine infusions)", "setting": "adult male Wistar rats [2]; [11]", "result": "did not significantly affect"}, {"measurement": "food-maintained responding", "setting": "adult male Wistar rats [2]; [11]", "result": "did not significantly affect"}]}, {"compound": "c1cnc2cc3c(cc2n1)[C@@H]1CNC[C@H]3C1", "note": "[varenicline]", "values": [{"measurement": "nicotine infusions over the 1-hour test session", "setting": "Wistar-derived male rats; 1 mg/kg sc, reduced from 15.4±1.0", "result": "7.7±1.2"}, {"measurement": "reduction of nicotine self-administration, varenicline compared with the metyrapone:oxazepam combination", "setting": "Wistar-derived male rats; fixed-ratio schedule", "result": "comparable to those seen with the lowest dose of the combination"}, {"measurement": "quit rates after one year", "setting": "[7]", "result": 14, "unit": "%"}]}]}
